Laboratory results reported in US11427549B2, “Pyrimidinyloxy benzo-fused compounds as herbicides” (FMC Corporation, priority 2017, dated 2022).

Experiments:
[1] = test system: ryegrass, Italian (Italian ryegrass, Lolium multiflorum); assay: Test A postemergence, ryegrass, Italian; format: in vivo; details: Lolium multiflorum, post-emergence, 240 h, 0 to 100 scale (0 no effect, 100 complete control), read-out: Plant response rating, Ryegrass, Italian; for pest or weed control at 31 g/ha: 31 g ai/ha; for pest or weed control at 125 g/ha: 125 g ai/ha
[2] = test system: barnyardgrass (Echinochloa crus-galli); assay: Test B flooded paddy test, barnyardgrass; details: Echinochloa crus-galli, read-out: Plant response rating, Barnyardgrass (0 to 100 scale, 0 is no effect, 100 is complete control)
[3] = test system: ragweed (common ragweed, Ambrosia elatior); assay: Test A preemergence, ragweed; format: in vivo; details: Ambrosia artemisiifolia, pre-emergence, 240 h, 0 to 100 scale (0 no effect, 100 complete control), read-out: Plant response rating, Ragweed; for pest or weed control at 31 g/ha: 31 g ai/ha; for pest or weed control at 125 g/ha: 125 g ai/ha
[4] = test system: pigweed (Amaranthus retroflexus); assay: Test A postemergence, pigweed; format: in vivo; details: Amaranthus retroflexus, post-emergence, 240 h, 0 to 100 scale (0 no effect, 100 complete control), read-out: Plant response rating, Pigweed; for pest or weed control at 31 g/ha: 31 g ai/ha; for pest or weed control at 125 g/ha: 125 g ai/ha
[5] = test system: barnyardgrass (Echinochloa crus-galli); assay: Test A postemergence, barnyardgrass; format: in vivo; details: Echinochloa crus-galli, post-emergence, 240 h, 0 to 100 scale (0 no effect, 100 complete control), read-out: Plant response rating, Barnyardgrass; for pest or weed control at 31 g/ha: 31 g ai/ha; for pest or weed control at 125 g/ha: 125 g ai/ha
[6] = test system: kochia (Kochia scoparia); assay: Test A preemergence, kochia; format: in vivo; details: Bassia scoparia, pre-emergence, 240 h, 0 to 100 scale (0 no effect, 100 complete control), read-out: Plant response rating, Kochia; for pest or weed control at 31 g/ha: 31 g ai/ha; for pest or weed control at 125 g/ha: 125 g ai/ha
[7] = test system: barnyardgrass (Echinochloa crus-galli); assay: Test A preemergence, barnyardgrass; format: in vivo; details: Echinochloa crus-galli, pre-emergence, 240 h, 0 to 100 scale (0 no effect, 100 complete control), read-out: Plant response rating, Barnyardgrass; for pest or weed control at 31 g/ha: 31 g ai/ha; for pest or weed control at 125 g/ha: 125 g ai/ha
[8] = test system: ragweed (common ragweed, Ambrosia elatior); assay: Test A postemergence, ragweed; format: in vivo; details: Ambrosia artemisiifolia, post-emergence, 240 h, 0 to 100 scale (0 no effect, 100 complete control), read-out: Plant response rating, Ragweed; for pest or weed control at 31 g/ha: 31 g ai/ha; for pest or weed control at 125 g/ha: 125 g ai/ha
[9] = test system: galium (catchweed bedstraw, Galium aparine); assay: Test A postemergence, galium; format: in vivo; details: Galium, post-emergence, 240 h, 0 to 100 scale (0 no effect, 100 complete control), read-out: Plant response rating, Galium; for pest or weed control at 31 g/ha: 31 g ai/ha; for pest or weed control at 125 g/ha: 125 g ai/ha
[10] = test system: ducksalad (Heteranthera limosa); assay: Test B flooded paddy test, ducksalad; details: Heteranthera limosa, read-out: Plant response rating, Ducksalad (0 to 100 scale, 0 is no effect, 100 is complete control)
[11] = test system: ryegrass, Italian (Italian ryegrass, Lolium multiflorum); assay: Test A preemergence, ryegrass, Italian; format: in vivo; details: Lolium multiflorum, pre-emergence, 240 h, 0 to 100 scale (0 no effect, 100 complete control), read-out: Plant response rating, Ryegrass, Italian; for pest or weed control at 31 g/ha: 31 g ai/ha; for pest or weed control at 125 g/ha: 125 g ai/ha
[12] = test system: blackgrass (Alopecurus myosuroides); assay: Test A postemergence, blackgrass; format: in vivo; details: Alopecurus myosuroides, post-emergence, 240 h, 0 to 100 scale (0 no effect, 100 complete control), read-out: Plant response rating, Blackgrass; for pest or weed control at 31 g/ha: 31 g ai/ha; for pest or weed control at 125 g/ha: 125 g ai/ha
[13] = test system: rice (Oryza sativa); assay: Test B flooded paddy test, rice; details: Oryza sativa, read-out: Plant response rating, Rice (0 to 100 scale, 0 is no effect, 100 is complete control)
[14] = test system: pigweed (Amaranthus retroflexus); assay: Test A preemergence, pigweed; format: in vivo; details: Amaranthus retroflexus, pre-emergence, 240 h, 0 to 100 scale (0 no effect, 100 complete control), read-out: Plant response rating, Pigweed; for pest or weed control at 31 g/ha: 31 g ai/ha; for pest or weed control at 125 g/ha: 125 g ai/ha
[15] = test system: corn (Zea mays); assay: Test A postemergence, corn; format: in vivo; details: Zea mays, post-emergence, 240 h, 0 to 100 scale (0 no effect, 100 complete control); for Corn plant response rating (crop injury, 0 = no effect, 100 = complete kill) at 31 g/ha: 31 g ai/ha; for Corn plant response rating (crop injury, 0 = no effect, 100 = complete kill) at 125 g/ha: 125 g ai/ha
[16] = test system: kochia (Kochia scoparia); assay: Test A postemergence, kochia; format: in vivo; details: Bassia scoparia, post-emergence, 240 h, 0 to 100 scale (0 no effect, 100 complete control), read-out: Plant response rating, Kochia; for pest or weed control at 31 g/ha: 31 g ai/ha; for pest or weed control at 125 g/ha: 125 g ai/ha
[17] = test system: wheat (Triticum aestivum); assay: Test A postemergence, wheat; format: in vivo; details: Triticum aestivum, post-emergence, 240 h, 0 to 100 scale (0 no effect, 100 complete control), read-out: Plant response rating, Wheat; for plant injury at 31 g/ha: 31 g ai/ha; for plant injury at 125 g/ha: 125 g ai/ha

SMILES | pest or weed control at 31 g/ha [1] | pest or weed control at 125 g/ha [1] | pest or weed control at 250 g/ha [2] | pest or weed control at 31 g/ha [3] | pest or weed control at 125 g/ha [3] | pest or weed control at 31 g/ha [4] | pest or weed control at 125 g/ha [4] | pest or weed control at 31 g/ha [5] | pest or weed control at 125 g/ha [5] | pest or weed control at 31 g/ha [6] | pest or weed control at 125 g/ha [6] | pest or weed control at 31 g/ha [7] | pest or weed control at 125 g/ha [7] | pest or weed control at 31 g/ha [8] | pest or weed control at 125 g/ha [8] | pest or weed control at 31 g/ha [9] | pest or weed control at 125 g/ha [9] | pest or weed control at 250 g/ha [10] | pest or weed control at 31 g/ha [11] | pest or weed control at 125 g/ha [11] | other results
O=C1OC(CCCCC(F)(F)F)Cc2c(Oc3ncc(Cl)cn3)cccc21 (stereo not drawn) [Compound 31, 5-[(5-Chloro-2-pyrimidinyl)oxy]-3,4-dihydro-3-(5,5,5-trifluoropentyl)-1H-2-benzopyran-1-one] | 0% | 0% | 0% | 0% | 0% | 40% | 50% | 20% | 0% | 0% | 0% | 0% | 0% | 0% | 0% | 0% | 30% | 0% | 0% | 0% | pest or weed control at 31 g/ha [12]: 0%; pest or weed control at 125 g/ha [12]: 0%; plant injury at 250 g/ha [13]: 0%; pest or weed control at 31 g/ha [14]: 0%; pest or weed control at 125 g/ha [14]: 0%; Corn plant response rating (crop injury, 0 = no effect, 100 = complete kill) at 31 g/ha [15]: 0%; Corn plant response rating (crop injury, 0 = no effect, 100 = complete kill) at 125 g/ha [15]: 10%; pest or weed control at 31 g/ha [16]: 10%; pest or weed control at 125 g/ha [16]: 40%; plant injury at 31 g/ha [17]: 0%; plant injury at 125 g/ha [17]: 0%
FC(F)(F)CCC1OCCc2cccc(Oc3ncc(Cl)cn3)c21 (stereo not drawn) [Compound 32, 5-Chloro-2-[[3,4-dihydro-1-(3,3,3-trifluoropropyl)-1H-2-benzopyran-8-yl]oxy]pyrimidine] | 0% | 0% | 0% | 0% | 0% | 20% | 40% | 10% | 20% | 0% | 0% | 0% | 40% | 0% | 0% | 10% | 20% | 95% | 0% | 0% | pest or weed control at 31 g/ha [12]: 10%; pest or weed control at 125 g/ha [12]: 30%; plant injury at 250 g/ha [13]: 0%; pest or weed control at 31 g/ha [14]: 0%; pest or weed control at 125 g/ha [14]: 60%; Corn plant response rating (crop injury, 0 = no effect, 100 = complete kill) at 31 g/ha [15]: 10%; Corn plant response rating (crop injury, 0 = no effect, 100 = complete kill) at 125 g/ha [15]: 20%; pest or weed control at 31 g/ha [16]: 0%; pest or weed control at 125 g/ha [16]: 10%; plant injury at 31 g/ha [17]: 0%; plant injury at 125 g/ha [17]: 10%
O=C1OCc2cccc(Oc3ncc(Cl)cn3)c2C1CCCCC(F)(F)F (stereo not drawn) [Compound 34, 5-[(5-Chloro-2-pyrimidinyl)oxy]-1,4-dihydro-4-(5,5,5-trifluoropentyl)-3H-2-benzopyran-3-one] | 0% | 0% | 0% | 0% | 0% | 10% | 40% | 0% | 10% | 0% | 0% | 0% | 0% | 0% | 0% | 20% | 50% | 0% | 0% | 0% | pest or weed control at 31 g/ha [12]: 0%; pest or weed control at 125 g/ha [12]: 10%; plant injury at 250 g/ha [13]: 0%; pest or weed control at 31 g/ha [14]: 0%; pest or weed control at 125 g/ha [14]: 0%; Corn plant response rating (crop injury, 0 = no effect, 100 = complete kill) at 31 g/ha [15]: 10%; Corn plant response rating (crop injury, 0 = no effect, 100 = complete kill) at 125 g/ha [15]: 20%; pest or weed control at 31 g/ha [16]: 20%; pest or weed control at 125 g/ha [16]: 10%; plant injury at 31 g/ha [17]: 0%; plant injury at 125 g/ha [17]: 10%
